# Measurements published in EPA's aquatic toxicity sets.
# Assays:
# Pimephales promelas = assay: 96 h LC50 (-log10 mol/L); higher = more toxic
# Tetrahymena pyriformis = assay: 48 h IGC50 (-log10 mol/L); higher = more toxic
Structure (SMILES),96 h LC50 (-log10 mol/L) (Pimephales promelas),48 h IGC50 (-log10 mol/L) (Tetrahymena pyriformis)
Cc1nc(C)c(C)o1,2.4,1.99
C=Cn1c2ccccc2c2ccccc21,7.81,5.24
Cc1ccccn1,2.02,1.99
O=[N+]([O-])c1cccc(Cl)c1,3.93,3.73
C=CCOC(=O)C(=C)C,5.11,2.32
O=Cc1ccc(Oc2ccccc2)cc1,4.63,4.26
CC(=O)c1ccccc1,2.87,2.54
CCCCCCCCC(C)=O,4.51,3.58
O=C(c1ccccc1)c1ccncc1,3.25,2.91
Nc1ccc(F)cc1C(F)(F)F,3.78,2.98
O=Cc1cc(Br)ccc1O,5.19,4.11
c1ccc2occc2c1,3.93,2.89
Nc1ccc(Br)cc1,3.56,4.01
c1ccc2ncccc2c1,3.45,3.09
Clc1nc(Cl)c(Cl)c(Cl)c1Cl,5.73,4.71
CCc1ccccn1,2.41,2.13
CCOC(=O)CCCCCCCCC(=O)OCC,4.98,4.35
C=CC(=O)OCC,4.6,3.52
CC(O)CCl (stereo unspecified),2.59,1.51
O=C(c1ccc(Br)cc1)c1cccnc1,4.11,3.82
CCCCCCC1CCC(=O)O1 (stereo unspecified),3.98,3.49
CC(C)COC(=O)c1ccccc1C(=O)OCC(C)C,5.49,4.44
CCOC(=O)c1ccc(N)cc1,3.67,3.7
C=CCO,5.26,1.08
CCCCOC(C)=O,3.81,2.51
COC(=O)c1ccc(Cl)cc1[N+](=O)[O-],3.9,3.82

Structure (SMILES),96 h LC50 (-log10 mol/L) (Pimephales promelas),48 h IGC50 (-log10 mol/L) (Tetrahymena pyriformis)
CC(C)(C)c1cc(C(C)(C)C)c(O)c(C(C)(C)C)c1,6.63,3.36
O=Cc1ccc(Cl)cc1Cl,4.99,4.04
Nc1cc([N+](=O)[O-])cc([N+](=O)[O-])c1,3.93,3.94
CN(C)c1ccc(/C=C/C=O)cc1,4.47,3.52
N#Cc1ccccn1,2.16,2.17
CO,0.056,0.334
Oc1ccc(Oc2ccccc2)cc1,4.58,4.36
O=[N+]([O-])c1ccc(F)cc1,3.7,3.1
C=CC(N)=O,2.79,2.19
N#Cc1cc(Cl)ccc1N,3.73,3.44
Cc1cccc(Cl)n1,2.74,2.52
CC(=O)c1ccc(Cl)cc1Cl,4.21,3.62
CC(=O)C(C)C,2,1.83
Cc1ccc(N)cc1N,1.94,2.34
O=C(O)CCCCC(=O)O,3.18,2.39
CCOc1ccc(N)c([N+](=O)[O-])c1,3.85,3.76
CC(=O)Cl,3.27,–
CNC(=O)ON=C(SC)C(=O)N(C)C,4.51,–
CCCCCC(C)=O,2.94,–
CCNCCO,1.78,–
O=Cc1cccc(C(F)(F)F)c1,5.28,–
O=C(O)[C@@H]1[C@H](C(=O)O)[C@H]2CC[C@@H]1O2,4.08,–
CCOC(=O)CCC(=O)OCC,3.1,–
C=CCCCCCCC=C,5.68,–
CCN(CCO)c1cccc(C)c1,3.53,–
CC(=O)Br,3.48,–

Structure (SMILES),96 h LC50 (-log10 mol/L) (Pimephales promelas),48 h IGC50 (-log10 mol/L) (Tetrahymena pyriformis)
COc1ccccc1C(N)=O,3.1,–
OC(c1ccc(Cl)cc1)(c1ccc(Cl)cc1)C(Cl)(Cl)Cl,5.86,–
CCOC(=O)[C@H](O)[C@@H](O)C(=O)OCC,2.5,–
O=C(O)c1c(Cl)ccc(Cl)c1Cl,4.42,–
Nc1ccc(-c2ccc(N)c(Cl)c2)cc1Cl,5.08,–
OC1COC(O)C(O)C1O (stereo unspecified),0.6,–
Cc1cccc([N+](=O)[O-])c1N,3.8,–
C=C(C)C(=C)C,4.08,–
CCN(CC)C1CCCCC1,3.86,–
CC1(C)[C@@H]2CC[C@@]1(C)C(=O)C2,3.14,–
C#CC(O)CCCCC (stereo unspecified),5.49,–
CCC(C)C(C)C=O (stereo unspecified),3.85,–
COC(=O)C1C(C(=O)OC)C2(Cl)C(Cl)=C(Cl)C1(Cl)C2(Cl)Cl (stereo unspecified),5.38,–
ClC1=C(Cl)C2(Cl)C3C(Cl)C=CC3C1(Cl)C2(Cl)Cl (stereo unspecified),6.75,–
ON=C1CCCCC1,2.74,–
NNC(N)=S,3.64,–
CC(C)(C)CC(C)(C)N,3.72,–
O=C(Oc1ccccc1)c1ccccc1O,5.28,–
C=CC(=C)C,2.95,–
Cc1ccc(N=C=O)cc1N=C=O,3.02,–
Oc1ccc(Cl)cc1,4.46,–
N#Cc1c(Cl)cccc1Cl,4.42,–
CC(=O)O,2.86,–
CCCCOCC(C)OC(=O)C(C)Oc1cc(Cl)c(Cl)cc1Cl (stereo unspecified),4.73,–
CCCCN(C=O)CCCC,3.25,–
ClCc1ccc(CCl)cc1,6.65,–

Structure (SMILES),96 h LC50 (-log10 mol/L) (Pimephales promelas),48 h IGC50 (-log10 mol/L) (Tetrahymena pyriformis)
Clc1cc(Cl)cc(C2(CC(Cl)(Cl)Cl)CO2)c1 (stereo unspecified),5.38,–
CC(C)OC(C)C,2.11,–
Fc1ccc(Oc2ccc(F)cc2)cc1,5.26,–
O=S(c1ccccc1)c1ccccc1,3.37,–
O=[N+]([O-])C(CO)(CO)CO,2.73,–
O=C(O)CCCOc1ccc(Cl)cc1Cl,4.14,–
C=C(C)[C@H]1CC=C(C)CC1,5.28,–
CCOP(=O)(OCC)OP(=O)(OCC)OCC,5.35,–
O=S(Cc1ccccc1)Cc1ccccc1,3.46,–
CC1(C)CC(=O)CC(=O)C1,1.09,–
O=C(O)C(Cl)(Cl)Cl,1.91,–
Nc1ccc(F)c(C(F)(F)F)c1,3.77,–
C=CC(C)(O)CC/C=C(\C)CCC=C(C)C (stereo unspecified),5.19,–
c1ccc2c(c1)CCO2,3.17,–
C#CC(C)(O)c1ccccc1 (stereo unspecified),3.11,–
C=C(C)C1CC=C(C)CC1 (stereo unspecified),2.15,–
COc1ccc(C=O)c(OC)c1,3.92,–
C1=C[C@H]2CC[C@@H]1C2,3.97,–
Cc1ccc(N(C)C)cc1,3.42,–
CN(C)N,3.88,–
O=[N+]([O-])c1ccc(O)cc1C(F)(F)F,4.51,–
ClCCCCCCl,3.75,–
CCOC(=O)/C=C\C(=O)OCC,3.98,–
Brc1ccccc1,4.45,–
Nc1ccccc1C(=O)c1ccc(Cl)cc1,5.04,–
C1CCOC1,1.52,–

Structure (SMILES),96 h LC50 (-log10 mol/L) (Pimephales promelas),48 h IGC50 (-log10 mol/L) (Tetrahymena pyriformis)
O=C(CCl)c1ccc(Cl)cc1,4.21,–
NC(=O)c1cccc(Br)c1,3.33,–
COc1ccc(O)cc1,3.11,–
C=C1[C@H]2CC[C@@H]3[C@H]2C(C)(C)CCC[C@]13C,4.3,–
C=C[C@@]1(C)CC[C@H]2C(=CC[C@@H]3[C@]2(C)CCC[C@@]3(C)C(=O)O)C1,5.54,–
CC(C)CCCCCOC(=O)C(C)Oc1cc(Cl)c(Cl)cc1Cl (stereo unspecified),4.24,–
CC(C)(C)c1ccc(Oc2cccc(C=O)c2)cc1,5.84,–
c1cc[n+]2c(c1)-c1cccc[n+]1CC2,4.12,–
CC(O)C#N (stereo unspecified),4.9,–
c1ccc2c(c1)CCC2,3.93,–
CCCCO,1.59,–
Clc1ccc(C(c2ccc(Cl)cc2)C(Cl)Cl)cc1,4.86,–
c1ccc(Nc2ccccc2)cc1,4.65,–
CCCCCCCCOC(=O)C(C)O (stereo unspecified),3.93,–
CCOC(=O)C(C)N(C(=O)c1ccccc1)c1ccc(Cl)c(Cl)c1 (stereo unspecified),5.81,–
COP(=O)(OC)Oc1nc(Cl)c(Cl)cc1Cl,8.16,–
Oc1ccccc1Cl,4.02,–
CCN(CC)c1ccc(C=O)c(O)c1,4.56,–
Brc1ccccc1Br,4.76,–
C#CC1(O)CCCCC1,2.69,–
CN(C)C(=O)N[C@@H]1C[C@@H]2C[C@H]1[C@@H]1CCC[C@H]21,3.84,–
c1ccc(-c2ccc(-c3ccccc3)o2)cc1,6.64,–
ClC1=C(Cl)[C@]2(Cl)C3C(Cl)C(Cl)CC3[C@@]1(Cl)C2(Cl)Cl (stereo partly specified),6.82,–
OC(C(F)(F)F)C(F)(F)F,2.84,–
Nc1ccc([N+](=O)[O-])cc1Cl,3.93,–
